ChEMBL document CHEMBL1154694, “Discovery of a 2,4-diamino-7-aminoalkoxyquinazoline as a potent and selective inhibitor of histone lysine methyltransferase G9a” (J Med Chem, 2009)

Columns and labels:
[1] = molecular target: T1, Histone-lysine N-methyltransferase EHMT2 (Homo sapiens, UniProt Q96KQ7)
T1 sequence (Q96KQ7 whole entry): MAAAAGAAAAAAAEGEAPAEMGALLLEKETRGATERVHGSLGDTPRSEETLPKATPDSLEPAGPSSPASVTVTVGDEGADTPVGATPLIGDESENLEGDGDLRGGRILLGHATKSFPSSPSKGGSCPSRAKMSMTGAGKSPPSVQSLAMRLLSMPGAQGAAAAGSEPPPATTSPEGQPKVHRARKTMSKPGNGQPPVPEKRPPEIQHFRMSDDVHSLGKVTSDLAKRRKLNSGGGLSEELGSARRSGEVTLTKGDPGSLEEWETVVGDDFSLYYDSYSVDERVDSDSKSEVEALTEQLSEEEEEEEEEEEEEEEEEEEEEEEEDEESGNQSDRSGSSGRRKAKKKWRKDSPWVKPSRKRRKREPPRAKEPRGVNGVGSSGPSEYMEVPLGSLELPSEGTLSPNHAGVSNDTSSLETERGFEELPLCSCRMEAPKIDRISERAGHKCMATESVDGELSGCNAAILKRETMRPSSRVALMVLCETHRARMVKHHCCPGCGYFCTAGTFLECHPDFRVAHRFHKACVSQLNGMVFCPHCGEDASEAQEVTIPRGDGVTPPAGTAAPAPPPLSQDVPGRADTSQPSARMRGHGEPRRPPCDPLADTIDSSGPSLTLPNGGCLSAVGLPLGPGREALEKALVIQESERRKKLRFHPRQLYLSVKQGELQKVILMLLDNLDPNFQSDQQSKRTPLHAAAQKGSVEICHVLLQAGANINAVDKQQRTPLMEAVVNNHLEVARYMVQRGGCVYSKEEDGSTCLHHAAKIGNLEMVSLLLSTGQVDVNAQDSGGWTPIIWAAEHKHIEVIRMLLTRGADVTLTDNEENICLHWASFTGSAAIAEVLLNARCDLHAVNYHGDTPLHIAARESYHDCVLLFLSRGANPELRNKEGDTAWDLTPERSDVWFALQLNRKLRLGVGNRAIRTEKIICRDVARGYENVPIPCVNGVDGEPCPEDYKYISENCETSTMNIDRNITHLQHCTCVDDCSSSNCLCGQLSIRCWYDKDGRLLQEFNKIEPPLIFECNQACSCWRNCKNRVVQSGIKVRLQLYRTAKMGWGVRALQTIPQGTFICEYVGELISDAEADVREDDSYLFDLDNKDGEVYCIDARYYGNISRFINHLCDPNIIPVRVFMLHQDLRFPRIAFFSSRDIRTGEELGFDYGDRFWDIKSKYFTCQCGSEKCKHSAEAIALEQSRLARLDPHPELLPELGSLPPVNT
Description: Inhibition of G9a by Thioglo assay

[2] = molecular target: T1, Histone-lysine N-methyltransferase EHMT2; assay: Inhibition of G9a by Alpha screen assay
[3] = molecular target: T2, Histone-lysine N-methyltransferase EHMT2 (Homo sapiens) (UniProt Q96KQ7); assay: Inhibition of G9a at 1 uM by Thioglo assay
T2 sequence (whole entry): T1 sequence (Q96KQ7 whole entry)

[4] = molecular target: T3, Muscarinic acetylcholine receptor M2 (Homo sapiens) (UniProt P08172); assay: Inhibition of muscarinic M2 receptor at 1 uM
T3 sequence (whole entry): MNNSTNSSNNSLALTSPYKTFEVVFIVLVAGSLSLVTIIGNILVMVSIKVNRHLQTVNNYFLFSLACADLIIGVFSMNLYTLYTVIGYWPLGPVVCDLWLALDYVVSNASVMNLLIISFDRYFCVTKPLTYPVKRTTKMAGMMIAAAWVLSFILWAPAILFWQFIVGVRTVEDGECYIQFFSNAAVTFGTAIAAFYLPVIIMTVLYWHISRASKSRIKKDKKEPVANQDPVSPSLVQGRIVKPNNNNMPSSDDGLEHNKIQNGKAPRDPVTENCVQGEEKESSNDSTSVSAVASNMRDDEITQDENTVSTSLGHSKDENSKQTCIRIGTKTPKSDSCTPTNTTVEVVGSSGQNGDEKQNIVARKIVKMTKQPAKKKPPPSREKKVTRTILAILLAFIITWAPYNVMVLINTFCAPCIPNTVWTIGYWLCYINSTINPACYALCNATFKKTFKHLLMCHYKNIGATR

[5] = molecular target: Histamine H1 receptor (Homo sapiens) (UniProt P35367); assay: Inhibition of histamine H1 receptor at 1 uM
Sequence of Histamine H1 receptor (Homo sapiens) (P35367 whole entry): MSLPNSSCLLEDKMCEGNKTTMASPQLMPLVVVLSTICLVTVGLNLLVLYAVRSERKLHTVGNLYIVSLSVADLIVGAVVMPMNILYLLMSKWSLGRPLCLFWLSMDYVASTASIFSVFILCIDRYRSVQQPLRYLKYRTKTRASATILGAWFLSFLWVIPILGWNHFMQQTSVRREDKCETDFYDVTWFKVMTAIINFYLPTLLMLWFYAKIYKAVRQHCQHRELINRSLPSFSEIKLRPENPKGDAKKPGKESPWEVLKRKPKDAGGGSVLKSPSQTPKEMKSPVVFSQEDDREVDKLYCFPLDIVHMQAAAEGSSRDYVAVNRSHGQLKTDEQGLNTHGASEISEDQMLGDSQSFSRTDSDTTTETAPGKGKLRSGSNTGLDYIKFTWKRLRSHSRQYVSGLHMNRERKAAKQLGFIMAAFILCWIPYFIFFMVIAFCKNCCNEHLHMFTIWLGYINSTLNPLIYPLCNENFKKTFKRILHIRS

SMILES	IC50 [1] [µM]	IC50 [2] [µM]	inhibition [3] [%]	inhibition [4] [%]	inhibition [5] [%]
COc1cc2nc(N3CCOCC3)nc(NC3CCN(C)CC3)c2cc1OC	1.6	0.81			
COc1cc2nc(N3CCCN(C)CC3)nc(NC3CCNCC3)c2cc1OC		> 10	< 30		
COc1cc2nc(N3CCCN(C)CC3)nc(NC(C)C)c2cc1OC		5.8	< 30		
COc1cc2nc(Cl)nc(NC3CCN(C)CC3)c2cc1OC		9.1	< 30		

Other lines, results leading:

IC50 [1] [µM]	IC50 [2] [µM]	inhibition [3] [%]	inhibition [4] [%]	inhibition [5] [%]	SMILES
	5.1	< 30			COc1cc2nc(N3CCCN(C)CC3)nc(NC3CC3)c2cc1OC
			82	31	COc1cc2c(NC3CCN(C)CC3)nc(N3CCCN(C)CC3)nc2cc1OCCCN(C)C
	> 10	< 30			COc1cc2nc(N3CCCN(C)CC3)nc(NC3CCOCC3)c2cc1OC
0.55	0.51				COc1cc2nc(N3CCCCC3)nc(NC3CCN(C)CC3)c2cc1OC
